Assay results: patent US9682131B2, “Compositions and method for utilization of thioretinamide in therapy of degenerative diseases of aging” (priority 2011, dated 2017)

Assays:
[1] = tested on: transplanted murine mammary adenocarcinoma; conditions: Chemotherapy 1977; 23:44-49; cited from earlier work
[2] = tested on: normal and hypophysectomized animals; conditions: Science 1976, 192:372-374, cited from earlier work
retinal cells = conditions: through reactive oxygen species generation and increased expression of heme oxygenase; J Cell Physiol 2006; cited from earlier work
[3] = tested on: transplanted malignant neoplasms; conditions: animals with transplanted malignant neoplasms; U.S. Pat. No. 4,255,443; cited from earlier work
Toxicity in human trials = conditions: 7.5 mg/70 kg/day to 300 mg/70 kg/day
Toxicity in animal tests = conditions: 7.5 mg/70 kg/day to 300 mg/70 kg/day
[4] = Carcinogenesis 1987; 8:1559-1562; Proc Soc Exp Biol Med 1989; 191:346-351; cited from earlier work
[5] = tested on: rats treated with parenteral homocysteine thiolactone; conditions: Kazimir et al 2002; cited from earlier work
transplanted neoplasms = conditions: cited from earlier work; for growth of transplanted neoplasms in animals: U.S. Pat. No. 4,383,994

CCCCC/C=C/C/C=C/C/C=C/C/C=C/CCCC(=O)NC1CCSC1=O (stereo not shown) [Arachidonoyl homocysteine thiolactone amide]
growth of transplanted murine mammary adenocarcinoma [1]: decrease the growth

N[C@@H](CCS(=O)(=O)O)C(=O)O [Homocysteic acid]
growth and release of insulin-like growth factor, IGF-1 ([2]; hypophysectomized animals treated with thyroxine): promotes growth and release of insulin-like growth factor, IGF-1 | growth in normal animals ([2]; normal animals): promotes growth

CC1=C(/C=C/C(C)=C/C=C/C(C)=C/C(=O)Nc2ccc(O)cc2)C(C)(C)CCC1 [fenretinide, N-(4-hydroxyphenyl)-retinamide]
apoptosis in retinal cells (retinal cells): induces apoptosis

N[C@H]1CCSC1=O.[O-][Cl+3]([O-])([O-])O [homocysteine thiolactone perchlorate]
necrosis within malignant neoplasms [3]: increased necrosis within malignant neoplasms

CC1=C(/C=C/C(C)=C/C=C/C(C)=C/CO)C(C)(C)CCC1 [retinol]
evidence of toxicity, such as weight loss, nausea, impairment of liver function, headache, or skin lesions (Toxicity in human trials): no evidence of toxicity | evidence of toxicity, such as weight loss, nausea, impairment of liver function, headache, or skin lesions (Toxicity in animal tests): no evidence of toxicity

CC1=C(/C=C/C(C)=C/C=C/C(C)=C/C(=O)NC2CCSC2=O)C(C)(C)CCC1 (stereo not shown) [thioretinamide, N-homocysteine thiolactonyl retinamide]
anti-carcinogenic and anti-neoplastic activities [4]: have anti-carcinogenic and anti-neoplastic activities | anti-atherogenic activity [5]: have anti-atherogenic activity

N-homocysteine thiolactonyl retinamido cobalamin [thioretinaco]
anti-carcinogenic and anti-neoplastic activities [4]: have anti-carcinogenic and anti-neoplastic activities | anti-atherogenic activity [5]: have anti-atherogenic activity

N-maleamide homocysteine thiolactone amide
growth of transplanted neoplasms in animals (transplanted neoplasms): suppress the growth | effect of encapsulation within liposomes on anti-neoplastic activity (transplanted neoplasms; encapsulated within liposomes, Proc Soc Exp Biol Med 1985, 180:57-61): greatly enhances its anti-neoplastic activity

N-maleyl homocysteine thiolactone amide
growth of transplanted neoplasms in animals (transplanted neoplasms): suppress the growth

pyridoxal homocysteine thiolactone enamine
growth of transplanted murine mammary adenocarcinoma [1]: decrease the growth

rhodium trichloride oxalyl homocysteine thiolactone amide
growth of transplanted neoplasms in animals (transplanted neoplasms): suppress the growth
